Laboratory results as given in ChEMBL document CHEMBL3352253, “ApoE secretion modulating bromotyrosine derivative from the Australian marine sponge Callyspongia sp” (2014).

Test system: CCF-STTG1
Assay: Induction of apolipoprotein E secretion in human CCF-STTG1 cells at 40 uM after 96 hrs by ELSA relative to control
Format: functional

COc1c(Br)cc(CC(=O)C(=O)O)cc1Br
fold change (FC): 1
